In ChEMBL document CHEMBL3792363, “2,6-Bis(benzimidazol-2-yl)pyridine as a potent transmembrane anion transporter” (Bioorg Med Chem Lett, 2016):

Assays:
[1] = Ionophoric activity assessed as induction of chloride influx into EYPC based liposomal membranes at 15% measured within 5 mins by lucigenin based fluorescence assay; settings: artificial membrane
[2] = Binding affinity to iodide anion assessed as association constant by spectrometric titration method
[3] = Binding affinity to bromide anion assessed as association constant by spectrometric titration method
[4] = Binding affinity to chloride anion assessed as association constant by spectrometric titration method
[5] = Ionophoric activity assessed as induction of pH discharge across EYPC based liposomal membranes at 1 to 5% by pyranine based fluorescence assay; settings: artificial membrane
[6] = Binding affinity to nitrate anion assessed as association constant by spectrometric titration method
[7] = Ionophoric activity assessed as induction of chloride influx into EYPC based liposomal membranes at 1 to 5% in presence of intravesicular NaNO3 by lucigenin based fluorescence assay; settings: artificial membrane
[8] = Ionophoric activity assessed as induction of pH discharge across EYPC based liposomal membranes at 5% by pyranine based fluorescence assay; settings: artificial membrane
[9] = Binding affinity to bromide anion assessed as association constant by spectrometric titration method relative to Me2bimpy
[10] = Ionophoric activity assessed as induction of pH discharge across EYPC based liposomal membranes using chloride salt of Cs+ ions at 3% by pyranine based fluorescence assay; settings: artificial membrane
[11] = Ionophoric activity assessed as induction of pH discharge across EYPC based liposomal membranes using chloride salt of Li+ ions at 3% by pyranine based fluorescence assay; settings: artificial membrane
[12] = Ionophoric activity assessed as induction of pH discharge across POPC based liposomal membranes at 1 to 5% by pyranine based fluorescence assay; settings: artificial membrane
[13] = Ionophoric activity assessed as induction of pH discharge across EYPC based liposomal membranes using chloride salt of Na+ ions at 3% by pyranine based fluorescence assay; settings: artificial membrane
[14] = Ionophoric activity assessed as induction of pH discharge across EYPC based liposomal membranes using chloride salt of K+ ions at 3% by pyranine based fluorescence assay; settings: artificial membrane
[15] = Ionophoric activity assessed as induction of pH discharge across EYPC based liposomal membranes using chloride salt of Rb+ ions at 3% by pyranine based fluorescence assay; settings: artificial membrane
[16] = Binding affinity to nitrate anion assessed as association constant by spectrometric titration method relative to Me2bimpy
[17] = Ionophoric activity assessed as induction of chloride influx into EYPC based liposomal membranes at 5% measured within 5 mins by lucigenin based fluorescence assay; settings: artificial membrane
[18] = Binding affinity to iodide anion assessed as association constant by spectrometric titration method relative to Me2bimpy
[19] = Binding affinity to chloride anion assessed as association constant by spectrometric titration method relative to Me2bimpy
[20] = Ionophoric activity assessed as induction of chloride influx into EYPC based liposomal membranes at 1 to 5% in presence of intravesicular and extravesicular by lucigenin based fluorescence assay; settings: artificial membrane
[21] = Ionophoric activity assessed as induction of chloride influx into EYPC based liposomal membranes at 1 to 5% in presence of intravesicular Na2SO4 by lucigenin based fluorescence assay; settings: artificial membrane
[22] = Ionophoric activity assessed as induction of pH discharge across POPC/cholesterol (30%) based liposomal membranes at 1 to 5% by pyranine based fluorescence assay; settings: artificial membrane

`O=C(NCc1ccccc1)[C@@H](Cc1ccccc1)n1cc[n+](Cc2cccc(C[n+]3ccn([C@H](Cc4ccccc4)C(=O)NCc4ccccc4)c3)c2)c1.O=S(=O)([N-]S(=O)(=O)C(F)(F)F)C(F)(F)F.O=S(=O)([N-]S(=O)(=O)C(F)(F)F)C(F)(F)F` gave an Activity [1] of 35%.
For `Cn1c(-c2cccc(-c3nc4ccccc4n3C)n2)nc2ccccc21`, the Ka [2] was 7.07 ×10² /M, the Ka [3] was 5.03 ×10² /M and the Ka [4] was 4 ×10² /M. For the same compound, the Activity [5] was “Not Active”, the Ka [6] was 7.23 ×10² /M and the Activity [7] was “Not Active”.
In the case of `CC(C)[C@H](C(=O)NCc1ccccc1)n1cc[n+](Cc2cccc(C[n+]3ccn([C@@H](C(=O)NCc4ccccc4)C(C)C)c3)c2)c1.O=S(=O)([N-]S(=O)(=O)C(F)(F)F)C(F)(F)F.O=S(=O)([N-]S(=O)(=O)C(F)(F)F)C(F)(F)F`, the Activity [1] is reported as 35%.
For `CCCCCCCCCCCCNC(=O)[C@@H](C(C)C)n1cc[n+](Cc2cccc(C[n+]3ccn([C@@H](C(=O)NCCCCCCCCCCCC)C(C)C)c3)c2)c1.O=S(=O)([N-]S(=O)(=O)C(F)(F)F)C(F)(F)F.O=S(=O)([N-]S(=O)(=O)C(F)(F)F)C(F)(F)F`, the Activity [1] was 35%.
In the case of `c1cc(-c2nc3ccccc3[nH]2)cc(-c2nc3ccccc3[nH]2)c1`, the Activity [8] is reported as “Active”.
In the case of `c1cc(-c2nc3ccccc3[nH]2)nc(-c2nc3ccccc3[nH]2)c1`, the fold change (FC) [9] is reported as 6, the Activity [10] is reported as “Active” and the Activity [11] is reported as “Active”. For the same compound, the Activity [12] was “Not Active”, the Activity [13] was “Active” and the Ka [2] was 1.57 ×10³ /M. The Activity [14] was “Active”, the Activity [15] was “Active” and the fold change (FC) [16] was 6.8. For the same compound, the Activity [17] was 35%, the Ka [3] was 3.04 ×10³ /M and the Ka [4] was 8.71 ×10³ /M. The Activity [5] was “Active”, the fold change (FC) [18] was 2.2 and the fold change (FC) [19] was 22. For the same compound, the Activity [20] was “Active”, the Activity [21] was “Active” and the Ka [6] was 4.9 ×10³ /M. The Activity [7] was “Active” and the Activity [22] was “Not Active”.
